How the values were obtained:
[1] = Toxicokinetic (TK) study in rats, 28-day; assay type: in vivo, rat; conditions: for Cmax / Tmax / AUC(0-t): rat, in vivo; for AUC(0-t): read-out: AUC0-24 h
[2] = Toxicity and toxicokinetic studies, 28-day rat and dog; conditions: 28-day rat and dog studies
From the text: Toxicity and toxicokinetic (TK) studies of the compounds can be performed by well known methods.

[3] = test system: TMD-8 lymphoma xenograft; assay: TMD-8 lymphoma xenograft SCID mouse model; assay type: in vivo; conditions: BID; for Antitumor effect: Oral
Experimental: Compounds (Compounds 45 and others) alone and its combinations were evaluated against tumor growth in xenograft models in female CB-17 SCID mice. The TMD-8, DoHH2, WSU-DLCL2 tumor cells were maintained in vitro as a suspension culture in RPMI-1640 medium supplemented with 10% heat inactivated fetal calf serum at 37° C. in an atmosphere of 5% CO2 in air. The tumor cells were routinely subcultured twice weekly. The cells growing in an exponential growth phase were harvested and counted for tumor inoculation. Each mouse was inoculated subcutaneously at the right flank with the tumor cells (10×10^6) in 0.2 ml of PBS with Matrigel (1:1) for tumor development. The treatments were started after the average tumor size reached approximately 100-200 mm^3. Each group consisted of 6-10 tumor-bearing mice. The testing article (vehicle, compound or combination) was orally administrated to the mice according to the predetermined doses for 14-days or 21-days. Animal body weight and tumor volume were measured every 2-or 3-days throughout the treatment.

[4] = Pharmacokinetic study in Beagle dogs; assay type: in vivo; conditions: dog, plasma
Experimental: […] Each group has three animals. For group of intravenous administration, blood samples were collected at pre-dose, 0.033, 0.083, 0.25, 0.5, 1, 3, 6, 9, 24 h post-dose; for group of oral administration, blood samples were collected at pre-dose, 0.083, 0.25, 0.5, 1, 3, 6, 9, 24 h post-dose. After blood collection, HPLC-MS/MS was applied to determine plasma concentrations of the compound.

[5] = Pharmacokinetic study in male SD rats; assay type: in vivo; conditions: rat, plasma
Experimental: A pharmacokinetic study in male SD rats: Male SD rats for pharmacokinetic study within 24 hours were divided into two groups: intravenous administration and oral administration. Each group has three animals. For group of intravenous administration, blood samples were collected at pre-dose, 0.0833, 0.167, 0.5, 1, 2, 4, 8, 24 h post-dose; for group of oral administration, blood samples were collected at pre-dose, 0.167, 0.5, 1, 2, 4, 8, 24 h post-dose. After blood collection, HPLC-MS/MS was applied to determine plasma concentrations of the compound.

[6] = Toxicokinetic (TK) study in dogs, 28-day; assay type: in vivo, dog; conditions: for Cmax / Tmax / AUC(0-t): dog, in vivo; for AUC(0-t): read-out: AUC0-24 h
[7] = female, 40 mg/kg, Study Day 1, Female
[8] = female, 40 mg/kg, Study Day 28, Female
[9] = female, 100 mg/kg, Study Day 1, Female
[10] = female, 100 mg/kg, Study Day 28, Female
[11] = female, 200 mg/kg, Study Day 1, Female
[12] = female, 200 mg/kg, Study Day 28, Female
[13] = male, 40 mg/kg, Study Day 1, Male
[14] = male, 40 mg/kg, Study Day 28, Male
[15] = male, 100 mg/kg, Study Day 1, Male
[16] = male, 100 mg/kg, Study Day 28, Male
[17] = male, 200 mg/kg, Study Day 1, Male
[18] = male, 200 mg/kg, Study Day 28, Male
[19] = IV, 2 mg/kg, mean, read-out: Vdss
[20] = female, 15 mg/kg/day, Study Day 1, Female
[21] = female, 15 mg/kg/day, Study Day 28, Female
[22] = female, 45 mg/kg/day, Study Day 1, Female
[23] = female, 45 mg/kg/day, Study Day 28, Female
[24] = female, 105 mg/kg/day, Study Day 28, Female
[25] = female, 150 mg/kg/day, Study Day 1, Female
[26] = male, 15 mg/kg/day, Study Day 1, Male
[27] = male, 15 mg/kg/day, Study Day 28, Male
[28] = male, 45 mg/kg/day, Study Day 1, Male
[29] = male, 45 mg/kg/day, Study Day 28, Male
[30] = male, 105 mg/kg/day, Study Day 28, Male
[31] = male, 150 mg/kg/day, Study Day 1, Male

C=CC(=O)N1CC[C@@H](n2nc(-c3ccc(Oc4c(F)c(F)cc(F)c4F)cc3F)c3c(N)ncnc32)C1 [Compound 45, 1-((R)-3-(4-amino-3-(2-fluoro-4-(2,3,5,6-tetrafluorophenoxy)phenyl)-1H-pyrazolo[3,4-d]pyrimidin-1-yl)pyrrolidin-1-yl)prop-2-en-1-one]
AUC compared with ibrutinib ([1]; TK data): significantly higher than that of ibrutinib
Cmax [1, 7]: 2660 ng/mL
Tmax [1, 7]: 1 h
AUC(0-t) [1, 7]: 17300 ng·h/mL
Cmax [1, 8]: 2970 ng/mL
Tmax [1, 8]: 1 h
AUC(0-t) [1, 8]: 17300 ng·h/mL
Cmax [1, 9]: 3700 ng/mL
Tmax [1, 9]: 4 h
AUC(0-t) [1, 9]: 28900 ng·h/mL
Cmax [1, 10]: 3830 ng/mL
Tmax [1, 10]: 1 h
AUC(0-t) [1, 10]: 29600 ng·h/mL
Cmax [1, 11]: 4680 ng/mL
Tmax [1, 11]: 4 h
AUC(0-t) [1, 11]: 65200 ng·h/mL
Cmax [1, 12]: 5490 ng/mL
Tmax [1, 12]: 8 h
AUC(0-t) [1, 12]: 60200 ng·h/mL
Cmax [1, 13]: 2160 ng/mL
Tmax [1, 13]: 2 h
AUC(0-t) [1, 13]: 13700 ng·h/mL
Cmax [1, 14]: 2090 ng/mL
Tmax [1, 14]: 2 h
AUC(0-t) [1, 14]: 15400 ng·h/mL
Cmax [1, 15]: 2740 ng/mL
Tmax [1, 15]: 2 h
AUC(0-t) [1, 15]: 21700 ng·h/mL
Cmax [1, 16]: 3990 ng/mL
Tmax [1, 16]: 2 h
AUC(0-t) [1, 16]: 30300 ng·h/mL
Cmax [1, 17]: 4220 ng/mL
Tmax [1, 17]: 2 h
AUC(0-t) [1, 17]: 37600 ng·h/mL
Cmax [1, 18]: 4540 ng/mL
Tmax [1, 18]: 2 h
AUC(0-t) [1, 18]: 45100 ng·h/mL
drug exposure, Day 1 versus Day 28 [2]: no significant difference in drug exposure between Day 1 and Day 28
drug exposure, male versus female [2]: no significant difference in drug exposure between male and female
Antitumor effect ([3]; 5 mg/kg, 21 days (FIG. 2)): 33%
Antitumor effect ([3]; 10 mg/kg, 14 days (FIG. 1)): 64%
Antitumor effect ([3]; 30 mg/kg, 14 days (FIG. 1)): 82%
Antitumor effect ([3]; 90 mg/kg, 14 days (FIG. 1)): 93%
TMD-8 tumor growth suppression ([3]; multiple doses, p.o., 14 days (FIG. 1)): significant TMD-8 tumor growth suppressions were dose-depended
AUC(0-inf) ([4]; IV, 2 mg/kg, mean): 987 ng·h/mL
AUC(0-t) ([4]; IV, 2 mg/kg, mean): 977 ng·h/mL
C0 ([4]; IV, 2 mg/kg, mean): 663 ng/mL
clearance ([4]; IV, 2 mg/kg, mean): 34.6 mL/min/kg
half-life ([4]; IV, 2 mg/kg, mean): 2.27 h
Vd [4, 19]: 4.24 L/kg
bioavailability ([4]; PO, 5 mg/kg): 26.2%
AUC(0-inf) ([4]; PO, 5 mg/kg, mean): 574 ng·h/mL
AUC(0-t) ([4]; PO, 5 mg/kg, mean): 650 ng·h/mL
Cmax ([4]; PO, 5 mg/kg, mean): 189 ng/mL
Tmax ([4]; PO, 5 mg/kg, mean): 1.17 h
half-life ([4]; PO, 5 mg/kg, mean): 2.92 h
AUC(0-inf) ([5]; IV, 2 mg/kg, mean): 1740 ng·h/mL
AUC(0-t) ([5]; IV, 2 mg/kg, mean): 1740 ng·h/mL
C0 ([5]; IV, 2 mg/kg, mean): 1390 ng/mL
clearance ([5]; IV, 2 mg/kg, mean): 20.2 mL/min/kg
half-life ([5]; IV, 2 mg/kg, mean): 0.787 h
Vd [5, 19]: 1.61 L/kg
bioavailability ([5]; PO, 10 mg/kg): 37.1%
AUC(0-inf) ([5]; PO, 10 mg/kg, mean): 3260 ng·h/mL
AUC(0-t) ([5]; PO, 10 mg/kg, mean): 3230 ng·h/mL
Cmax ([5]; PO, 10 mg/kg, mean): 641 ng/mL
Tmax ([5]; PO, 10 mg/kg, mean): 1.33 h
half-life ([5]; PO, 10 mg/kg, mean): 1.71 h
AUC compared with ibrutinib ([6]; TK data): significantly higher than that of ibrutinib
Cmax [6, 20]: 685 ± 212 ng/mL
Tmax [6, 20]: 1 h
AUC(0-t) [6, 20]: 2930 ng·h/mL
Cmax [6, 21]: 687 ± 123 ng/mL
Tmax [6, 21]: 2 h
AUC(0-t) [6, 21]: 3730 ± 549 ng·h/mL
Cmax [6, 22]: 1220 ± 431 ng/mL
Tmax [6, 22]: 2 h
AUC(0-t) [6, 22]: 6220 ± 3000 ng·h/mL
Cmax [6, 23]: 1060 ± 263 ng/mL
Tmax [6, 23]: 2 h
AUC(0-t) [6, 23]: 8130 ± 1490 ng·h/mL
Cmax [6, 24]: 2420 ± 670 ng/mL
Tmax [6, 24]: 2 h
AUC(0-t) [6, 24]: 17300 ± 2830 ng·h/mL
Cmax [6, 25]: 1850 ± 605 ng/mL
Tmax [6, 25]: 2 h
AUC(0-t) [6, 25]: 11200 ± 5990 ng·h/mL
Cmax [6, 26]: 746 ng/mL
Tmax [6, 26]: 2 h
AUC(0-t) [6, 26]: 3550 ng·h/mL
Cmax [6, 27]: 576 ± 145 ng/mL
Tmax [6, 27]: 2 h
AUC(0-t) [6, 27]: 3260 ± 732 ng·h/mL
Cmax [6, 28]: 1240 ± 381 ng/mL
Tmax [6, 28]: 2 h
AUC(0-t) [6, 28]: 6480 ± 1670 ng·h/mL
Cmax [6, 29]: 1470 ± 538 ng/mL
Tmax [6, 29]: 2 h
AUC(0-t) [6, 29]: 9170 ± 3810 ng·h/mL
Cmax [6, 30]: 2700 ± 769 ng/mL
Tmax [6, 30]: 2 h
AUC(0-t) [6, 30]: 16400 ± 5410 ng·h/mL
Cmax [6, 31]: 2460 ± 858 ng/mL
Tmax [6, 31]: 4 h
AUC(0-t) [6, 31]: 22900 ± 13900 ng·h/mL

From patent US9532990B2 (Zhejiang DTRM Biopharma Co. Ltd., priority 2014, dated 2017)
